Consider 21 compounds from patent publication US20230131899A1, “INHIBITORS OF MICROBIALLY INDUCED AMYLOID” (Axial Therapeutics, Inc., priority 2020, published 2023).

A word on the IC50: it is the concentration that gives 50% inhibition.

The subject of this assay is CsgA gene expression (csgBAC promoter-GFP reporter) in E. coli UTI89. Briefly: In vitro live cell fluorescent reporter assay of CsgA transcription (Reporter Assay). Format: cell-based. The method, boiled down:
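Compounds at 0.14–100 μM (1% DMSO final) incubated 20 h at 27 °C in YESCA broth with UTI89 carrying a single-copy GFP reporter under the csgBAC intergenic promoter region, inoculum OD600 0.003. Fluorescence normalized to vehicle wells gave IC50 and 50%-of-vehicle concentration; OD600 reduction >10% flagged growth impact.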

[1] abbreviates: Escherichia coli, read-out: Reporter Assay Abs IC50 (μM), median Abs IC50 in the CsgA reporter assay, N/A = maximum expression reduction is <50% of control.
The mark [2] stands for this setting: Escherichia coli, read-out: Reporter Assay Abs IC50, activity range, class symbol.
Where [3] appears, read: Escherichia coli, read-out: Reporter Assay Abs IC50 (activity range), median Abs IC50 in the CsgA reporter assay, class symbol.

Where two headings read alike, the source gives them in different places.

On to `CCNC(=O)c1c(Cc2cccc3ccccc23)c(-c2cccc(C(F)(F)F)c2)c2n(c1=O)C(C(=O)O)CN(C)S2(=O)=O` (stereo not drawn) [Compound 156, 7-(ethylcarbamoyl)-2-methyl-8-(naphthalen-1-ylmethyl)-6-oxo-9-(3-(trifluoromethyl)phenyl)-3,4-dihydro-2H,6H-pyrido[1,2-e][1,2,5] thiadiazine-4-carboxylic acid 1,1-dioxide], for which the IC50 under setting [1] stood at 9.3 µM and the IC50 under setting [2] fell in the range of 4.6 to 10 µM.

With `O=C(O)C1CN(Cc2ccc(CO)cc2)c2c(-c3cccc(C(F)(F)F)c3)c(Cc3cccc4ccccc34)c(Cl)c(=O)n21` (stereo not drawn) [Compound 170, 6-chloro-1-(4-(hydroxymethyl)benzyl)-7-(naphthalen-1-ylmethyl)-5-oxo-8-(3-(trifluoromethyl)phenyl)-1,2,3,5-tetrahydroimidazo[1,2-a]pyridine-3-carboxylic acid], the IC50 reads like this: under setting [1], 2.2 µM; under setting [2], 1.3 to 4.5 µM.

With `CC(C)(C)c1ccc(Cc2c(-c3cccc(C(F)(F)F)c3)c3n(c(=O)c2Cl)C(C(=O)O)CN3Cc2ccccc2)cc1` (stereo not drawn) [Compound 216, 1-benzyl-7-(4-(tert-butyl)benzyl)-6-chloro-5-oxo-8-(3-(trifluoromethyl)phenyl)-1,2,3,5-tetrahydroimidazo[1,2-a]pyridine-3-carboxylic acid], the IC50 runs as follows: under setting [1], 0.7 µM; under setting [2], < 1.3 µM.

As for `O=C(O)C1CN(Cc2cccc(O)c2)c2c(-c3cccc(C(F)(F)F)c3)c(Cc3cccc4ccccc34)c(Cl)c(=O)n21` (stereo not drawn) [Compound 196, 6-chloro-1-(3-hydroxybenzyl)-7-(naphthalen-1-ylmethyl)-5-oxo-8-(3-(trifluoromethyl)phenyl)-1,2,3,5-tetrahydroimidazo[1,2-a]pyridine-3-carboxylic acid], the IC50 is 2.8 µM under setting [1] and 1.3 to 4.5 µM under setting [2].

Regarding `Nc1c(Cc2cccc3ccccc23)c(-c2cccc(C(F)(F)F)c2)c2n(c1=O)C(C(=O)O)CS2` (single isomer, unassigned) [Compound 020b, 6-amino-7-(naphthalen-1-ylmethyl)-5-oxo-8-(3-(trifluoromethyl)phenyl)-2,3-dihydro-5H-thiazolo[3,2-a]pyridine-3-carboxylic acid], the IC50 is, setting by setting: (read-out: Reporter Assay Abs IC50 (activity range), median Abs IC50 in the CsgA reporter assay, class symbol) 4.6 to 10 µM; (read-out: Reporter Assay Abs IC50, median Abs IC50 in the CsgA reporter assay, N/A = maximum expression reduction is <50% of control) 5.7 µM.

For `CCCCN1CC(C(=O)O)n2c(c(-c3cccc(C(F)(F)F)c3)c(Cc3cccc4ccccc34)c(C(N)=O)c2=O)S1(=O)=O` (stereo not drawn) [Compound 177, 2-butyl-7-carbamoyl-8-(naphthalen-1-ylmethyl)-6-oxo-9-(3-(trifluoromethyl)phenyl)-3,4-dihydro-2H,6H-pyrido[1,2-e][1,2,5]thiadiazine-4-carboxylic acid 1,1-dioxide], the IC50 by setting is: under setting [1], 1.3 µM; under setting [2], 1.3 to 4.5 µM.

With `CC(C)N1CC(C(=O)O)n2c1c(-c1cccc(C(F)(F)F)c1)c(Cc1cccc3ccccc13)c(Cl)c2=O` (stereo not drawn) [Compound 179, 6-chloro-1-isopropyl-7-(naphthalen-1-ylmethyl)-5-oxo-8-(3-(trifluoromethyl)phenyl)-1,2,3,5-tetrahydroimidazo[1,2-a]pyridine-3-carboxylic acid], the IC50 is 1.4 µM under setting [1] and 1.3 to 4.5 µM under setting [2].

As for `CCCN1CC(C(=O)O)n2c(c(-c3cccc(C(F)(F)F)c3)c(Cc3cccc4ccccc34)c(C(N)=O)c2=O)S1(=O)=O` (stereo not drawn) [Compound 172, 7-carbamoyl-8-(naphthalen-1-ylmethyl)-6-oxo-2-propyl-9-(3-(trifluoromethyl)phenyl)-3,4-dihydro-2H,6H-pyrido[1,2-e][1,2,5]thiadiazine-4-carboxylic acid 1,1-dioxide], the IC50 by setting is: under setting [1], 4.2 µM; under setting [2], 1.3 to 4.5 µM.

With `N#Cc1cccc(CN2CC(C(=O)O)n3c2c(-c2cccc(C(F)(F)F)c2)c(Cc2cccc4ccccc24)c(Cl)c3=O)c1` (stereo not drawn) [Compound 168, 6-chloro-1-(3-cyanobenzyl)-7-(naphthalen-1-ylmethyl)-5-oxo-8-(3-(trifluoromethyl)phenyl)-1,2,3,5-tetrahydroimidazo[1,2-a]pyridine-3-carboxylic acid], the IC50 is 1.3 µM under setting [1] and 1.3 to 4.5 µM under setting [2].

For `Cn1c(=O)c2c(nc(CCCCCCCN3CC(C(=O)O)n4c(c(-c5cccc(C(F)(F)F)c5)c(Cc5cccc6ccccc56)cc4=O)S3(=O)=O)n2C)n(C)c1=O` (stereo not drawn) [Compound 047, 8-(naphthalen-1-ylmethyl)-6-oxo-9-(3-(trifluoromethyl)phenyl)-2-(7-(1,3,7-trimethyl-2,6-dioxo-2,3,6,7-tetrahydro-1H-purin-8-yl)heptyl)-3,4-dihydro-2H,6H-pyrido[1,2-e][1,2,5]thiadiazine-4-carboxylic acid 1,1-dioxide], the IC50 is < 1.3 µM under setting [3] and 0.9 µM under setting [1].

As for `O=C(O)C1CN(Cc2ccccc2)c2c(-c3cccc(C(F)(F)F)c3)c(Cc3cccc4ccccc34)cc(=O)n21` (stereo not drawn) [Compound 187, 1-benzyl-7-(naphthalen-1-ylmethyl)-5-oxo-8-(3-(trifluoromethyl)phenyl)-1,2,3,5-tetrahydroimidazo[1,2-a]pyridine-3-carboxylic acid], the IC50 under setting [1] is 19 µM and the IC50 under setting [2] is > 10 µM.

For the compound `Nc1c(Cc2ccc(N)c3ccccc23)c(-c2cccc(C(F)(F)F)c2)c2n(c1=O)C(C(=O)O)CNS2(=O)=O` (stereo not drawn) [Compound 041], the IC50 is > 10 µM under setting [3] and 20.2 µM under setting [1].

As to `CN1CC(C(=O)O)n2c(c(-c3cccc(C(F)(F)F)c3)c(Cc3cccc4ccccc34)c(NC3CCCC3)c2=O)S1(=O)=O` (stereo not drawn) [Compound 070, 7-(cyclopentylamino)-2-methyl-8-(naphthalen-1-ylmethyl)-6-oxo-9-(3-(trifluoromethyl)phenyl)-3,4-dihydro-2H,6H-pyrido[1,2-e][1,2,5]thiadiazine-4-carboxylic acid 1,1-dioxide], the IC50 under setting [3] is 1.3 to 4.5 µM and the half-inhibitory concentration (IC50) under setting [1] was 2.3 µM.

On to `CCCN1CC(C(=O)O)n2c1c(-c1cccc(C(F)(F)F)c1)c(Cc1cccc3ccccc13)c(Cl)c2=O` (stereo not drawn) [Compound 162, 6-chloro-7-(naphthalen-1-ylmethyl)-5-oxo-1-propyl-8-(3-(trifluoromethyl)phenyl)-1,2,3,5-tetrahydroimidazo[1,2-a]pyridine-3-carboxylic acid], for which the IC50 is 1.1 µM under setting [1] and < 1.3 µM under setting [2].

Consider `O=C(O)C1CN(CCCO)S(=O)(=O)c2c(-c3cccc(C(F)(F)F)c3)c(Cc3cccc4ccccc34)cc(=O)n21` (stereo not drawn) [Compound 056, 2-(3-hydroxypropyl)-8-(naphthalen-1-ylmethyl)-6-oxo-9-(3-(trifluoromethyl)phenyl)-3,4-dihydro-2H,6H-pyrido[1,2-e][1,2,5]thiadiazine-4-carboxylic acid 1,1-dioxide], for which the IC50 under setting [3] was > 10 µM and the IC50 under setting [1] amounted to 19.8 µM.

As to `Cn1c(=O)c2c(ncn2CCCCCN2CC(C(=O)O)n3c(c(-c4cccc(C(F)(F)F)c4)c(Cc4cccc5ccccc45)cc3=O)S2(=O)=O)n(C)c1=O` (stereo not drawn) [Compound 034, 2-(5-(1,3-dimethyl-2,6-dioxo-1,2,3,6-tetrahydro-7H-purin-7-yl)pentyl)-8-(naphthalen-1-ylmethyl)-6-oxo-9-(3-(trifluoromethyl)phenyl)-3,4-dihydro-2H,6H-pyrido[1,2-e][1,2,5]thiadiazine-4-carboxylic acid 1,1-dioxide], the IC50 is 1.3 to 4.5 µM under setting [3] and 2.8 µM under setting [1].

As to `Cn1c(=O)c2c(ncn2CCCCN2CC(C(=O)O)n3c(c(-c4cccc(C(F)(F)F)c4)c(Cc4cccc5ccccc45)cc3=O)S2(=O)=O)n(C)c1=O` (stereo not drawn) [Compound 033, 2-(4-(1,3-dimethyl-2,6-dioxo-1,2,3,6-tetrahydro-7H-purin-7-yl)butyl)-8-(naphthalen-1-ylmethyl)-6-oxo-9-(3-(trifluoromethyl)phenyl)-3,4-dihydro-2H,6H-pyrido[1,2-e][1,2,5]thiadiazine-4-carboxylic acid 1,1-dioxide], the IC50 by setting is: under setting [3], 1.3 to 4.5 µM; under setting [1], 3.3 µM.

In the case of `CCCN1CC(C(=O)O)n2c(c(-c3cccc(C(F)(F)F)c3)c(C(F)(F)c3cccc4ccccc34)cc2=O)S1(=O)=O` (stereo not drawn) [Compound 138, 8-(difluoro(naphthalen-1-yl)methyl)-6-oxo-2-propyl-9-(3-(trifluoromethyl)phenyl)-3,4-dihydro-2H,6H-pyrido[1,2-e][1,2,5]thiadiazine-4-carboxylic acid 1,1-dioxide], the IC50 runs as follows: under setting [1], 2.5 µM; under setting [2], 1.3 to 4.5 µM.

With `CN1CC(C(=O)O)n2c(c(-c3cccc(C(F)(F)F)c3)c(Cc3cccc4ccccc34)c(NCc3ccccc3)c2=O)S1(=O)=O` (stereo not drawn) [Compound 071], the IC50 reads like this: under setting [3], 1.3 to 4.5 µM; under setting [1], 1.6 µM.

With `CN1CC(C(=O)O)n2c(c(-c3cccc(C(F)(F)F)c3)c(Cc3cccc4ccccc34)c(C(=O)NC(C)(C)C)c2=O)S1(=O)=O` (stereo not drawn) [Compound 158, 7-(tert-butylcarbamoyl)-2-methyl-8-(naphthalen-1-ylmethyl)-6-oxo-9-(3-(trifluoromethyl)phenyl)-3,4-dihydro-2H,6H-pyrido[1,2-e][1,2,5]thiadiazine-4-carboxylic acid 1,1-dioxide], the IC50 is 1.7 µM under setting [1] and 1.3 to 4.5 µM under setting [2].

As for `O=C(O)C1CN(CCCCCCN2CC(C(=O)O)n3c2c(-c2cccc(C(F)(F)F)c2)c(Cc2cccc4ccccc24)c(Cl)c3=O)c2c(-c3cccc(C(F)(F)F)c3)c(Cc3cccc4ccccc34)c(Cl)c(=O)n21` (stereo not drawn) [Compound 193, 1,1′-(hexane-1,6-diyl)bis(6-chloro-7-(naphthalen-1-ylmethyl)-5-oxo-8-(3-(trifluoromethyl)phenyl)-1,2,3,5-tetrahydroimidazo[1,2-a]pyridine-3-carboxylic acid)], the half-maximal inhibitory concentration (IC50) is, setting by setting: under setting [1], 0.6 µM; under setting [2], < 1.3 µM.
